Data taken from ChEMBL document CHEMBL1201862, “PubChem BioAssay data set” (2004).
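These data come from cells grown in 96-well plates and exposed to compound for 48 hours at five concentrations. GI50 = concentration required for 50% inhibition of growth.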 Activity calls are given as the source filed them. Cut-off read from the data, not from the text of the source: active = GI50 up to about 1.1 µM and inactive = higher.

Experiments:
Test in all cases: inhibition of tumour cell growth, NCI panel, 48 h
CCRF-CEM = system: CCRF-CEM
OVCAR-4 = system: OVCAR-4
HCT-116 = system: HCT-116
SN12C = system: SN12C
SK-MEL-28 = system: SK-MEL-28
OVCAR-8 = system: OVCAR-8
EKVX = system: EKVX
RXF 393 = system: RXF 393
A549 = system: A549
HT-29 = system: HT-29
UACC-62 = system: UACC-62
OVCAR-5 = system: OVCAR-5
SF-268 = system: SF-268
KM12 = system: KM12
NCI-H460 = system: NCI-H460
NCI-H522 = system: NCI-H522
NCI-H226 = system: NCI-H226
HOP-92 = system: HOP-92
SK-MEL-5 = system: SK-MEL-5
MOLT-4 = system: MOLT-4

Measured: GI50

Cc1ccc2c(ccc(/C=C/c3ccc(O)c4ncccc34)[n+]2C)c1
inactive: CCRF-CEM 2.42 µM | OVCAR-4 5.09 µM | HCT-116 3.87 µM | SN12C 12.1 µM | SK-MEL-28 10.3 µM | OVCAR-8 2.38 µM | EKVX 18.1 µM | RXF 393 16.3 µM | A549 15.1 µM | HT-29 12.2 µM | UACC-62 8.04 µM | OVCAR-5 25.2 µM | SF-268 2.94 µM | KM12 9.08 µM | NCI-H460 2.87 µM | NCI-H522 3.64 µM | NCI-H226 24.8 µM | HOP-92 14.7 µM | SK-MEL-5 14.1 µM | MOLT-4 1.75 µM
